Here are results for nine compounds from patent EP1184030A1, “Antibacterial composition comprising trimethylnorbornanylcyclohexanol derivatives” (Givaudan SA, priority 2000, dated 2002).

Data set [1] concerns Ax 15 Corynebacterium jeikeium. The data set is described as follows: MIC microtiter plate test, axilla bacteria. Format: cell-based. The following applies: for Bacteriostatic activity (concentration needed for at least 80% reduction in growth): Corynebact. Ax15, 24 hours; for Minimal inhibitory concentration (MIC): Ax15, growth inhibition by at least 80%, 24 h at 36° C. The text has this:
(§1) The different bacterial strains had been isolated from the human axilla by current microbiological practice. They were taxonomically identified by cell morphology, gram-reaction and biochemical tests included in the Api coryne test kit (BioMerieux, France). Strain Staphylococcus epidermidis Ax25 was identified by fatty acid methyl ester analysis (FAME; German type strain collection DSMZ, Germany). The strains were maintained on Tryptic soy broth plates, this standard medium being amended with 5 g per Litre of Tween 80 and 1 g of Soybean lecithin. Plates were incubated at 36° C for a period 48 hours. The bacteria were then swabbed from the plates and suspended in 4 ml of Müller-Hinton broth amended with 100 mg of Tween80 per Litre (MH-Tween) and incubated again at 36° C for 16 hours. Following incubation the bacterial suspensions were diluted in MH-Tween to obtain a final cell density of 10^6 colony forming units per ml. For each fragrance material four microtiter plates were used in the example, each microtiter plate having 8 rows, A-H, and 12 columns, 1-12. To each column a diluted suspension of a different test organism was distributed, 100 µl per well. 1% stock solutions of the fragrance materials were then prepared in MH-Tween broth. The fragrance material was dispersed by ultrasonication into the aqueous medium to obtain a homogenous emulsion. 100 µl per well of this emulsion was then added to the first row of the microtiter plates already containing the target organisms. Serial dilution series were then prepared starting at row A and continuing until row G, each time removing 100 µl from a well and transferring it to the next well. In this way fragrance concentrations of 0.5%, 0.25%, 0.125%, 0.0625%, 0.03125%, 0.0156% and 0.0078% were tested for their antibacterial efficacy. The reference compound Triclosan was tested at 16 fold lower concentrations. The plates were covered with plastic films and incubated for 24 h at 36° C with shaking at 250 rpm. The turbidity developing in the microtiter plates was then examined after 24 h to determine microbial growth. The minimal concentration of fragrance inhibiting the growth of an organism by at least 80% was determined as the minimal inhibitory concentration (MIC).
(§2) Ax 25 was identified as Staphylococcus epidermidis by FAME analysis. Identification with the Api Coryne test kit yielded the following species assignments for the remainder of the strains: Ax 26 Corynebacterium sp.; Ax 3 Corynebacterium bovis; Ax 7 Corynebacterium group G; Ax 10 Corynebacterium jeikeium; Ax 11 Corynebacterium jeikeium; Ax 12 Corynebacterium jeikeium; Ax 15 Corynebacterium jeikeium; Ax 20 Corynebacterium striatum/amycolatum; Ax 19 Corynebacterium jeikeium. The strains were isolated from the axilla of 8 human volunteers. Based on biochemical tests and colony morphology all strains were distinct from each other, even the several strains all belonging to Corynebacterium jeikeium.

Data set [2] relates to Ax 7 Corynebacterium group G. The data set is described as follows: MIC microtiter plate test, axilla bacteria. As to conditions: for Bacteriostatic activity (concentration needed for at least 80% reduction in growth): Corynebact. Ax7, 24 hours; for Minimal inhibitory concentration (MIC): Ax7, growth inhibition by at least 80%, 24 h at 36° C. Format: cell-based.
Text: as §1, §2

The subject of data set [3] is Staphylococcus epidermidis Ax25. As to the kind of experiment: MIC microtiter plate test, axilla bacteria. Format: cell-based. As to conditions: for Bacteriostatic activity (concentration needed for at least 80% reduction in growth): S. epidermidis, 24 hours; for Minimal inhibitory concentration (MIC): Ax 25, growth inhibition by at least 80%, 24 h at 36° C.
Text: as §1, §2

Another data set is described as follows: Vapour pressure. The class given is physicochemical. The source says: Odoriferous substances are by definition volatile compounds which evaporate from the skin and therefore loose their deodorising effect. Furthermore small water-soluble fragrance compounds can get dissolved in sweat and are thus rapidly diluted under conditions of high sweat secretion which further reduces the duration of the deodorising effect. Therefore a low water solubility indicated by a high LogP value and a low volatility indicated by low vapour pressure are desired for odoriferous substances which are used for their antibacterial activity.

For data set [4], the system named is Ax 10 Corynebacterium jeikeium. As to the kind of experiment: MIC microtiter plate test, axilla bacteria. Format: cell-based. As to conditions: Ax10; growth inhibition by at least 80%, 24 h at 36° C.
Text: as §1, §2

Data set [5] relates to Ax 11 Corynebacterium jeikeium. As to the kind of experiment: MIC microtiter plate test, axilla bacteria. The class given is cell-based. The following applies: Ax11; growth inhibition by at least 80%, 24 h at 36° C.
Text: as §1, §2

The subject of data set [6] is Ax 12 Corynebacterium jeikeium. The data set is described as follows: MIC microtiter plate test, axilla bacteria. The class given is cell-based. The following applies: Ax12; growth inhibition by at least 80%, 24 h at 36° C.
Text: as §1, §2

For data set [7], the system named is Ax 20 Corynebacterium striatum/amycolatum. As to the kind of experiment: MIC microtiter plate test, axilla bacteria. Format: cell-based. The following applies: Ax20; growth inhibition by at least 80%, 24 h at 36° C.
Text: as §1, §2

Data set [8] relates to Ax 3 Corynebacterium bovis. The data set is described as follows: MIC microtiter plate test, axilla bacteria. Format: cell-based. As to conditions: Ax3; growth inhibition by at least 80%, 24 h at 36° C.
Text: as §1, §2

With `COC1CC(C2CC3CC2C(C)C3(C)C)CCC1O` (single isomer, unassigned; peak a) [Peak A], the “Bacteriostatic activity (concentration needed for at least 80% reduction in growth)” value is reported as 0.0048 percent (w/v) in data set [1] (Table 7); 0.0048 percent (w/v) in data set [1] (Table 8); 0.0048 percent (w/v) in data set [2] (Table 7); 0.0048 percent (w/v) in [2] (Table 8); 0.0040 percent (w/v) in data set [3] (Table 7); 0.0040 percent (w/v) in data set [3] (Table 8).
`COC1CC(C2CC3CC2C(C)C3(C)C)CCC1O` (single isomer, unassigned; peak b) [Peak B]: the “Bacteriostatic activity (concentration needed for at least 80% reduction in growth)” value in data set [1] (Table 7) is 0.0028 percent (w/v); in data set [1] (Table 8), 0.0028 percent (w/v); in data set [2] (Table 7), 0.0028 percent (w/v); in data set [2] (Table 8), 0.0028 percent (w/v); in [3] (Table 7) it was 0.0023 percent (w/v); in data set [3] (Table 8), 0.0023 percent (w/v).
Consider `CC1C2CC(CC2C2CCCCC2O)C1(C)C` (centres unmarked) [2-(5,5,6-trimethylbicyclo[2.2.1]hept-2-yl)-cyclohexanol], for which the vapour pressure result in “Vapour pressure” is “about 2.2 µg/L”.
The same measure, in the same setting: the same measure for `CC1C2CC(CC2C2CCCC(O)C2)C1(C)C` (centres unmarked) [3-(5,5,6-trimethylbicyclo[2.2.1]hept-2-yl)-cyclohexanol]: “about 2.2 µg/L”.
On the same count and under the same terms, as for `CC1C2CC(CC2C2CCC(O)CC2)C1(C)C` (centres unmarked) [4-(5,5,6-trimethylbicyclo[2.2.1]hept-2-yl)-cyclohexanol], the entry is “about 2.2 µg/L”.
Consider `CC1=CCC(/C=C\C(C)C(C)O)C1(C)C` (centres unmarked) [Ebanol], for which the “Minimal inhibitory concentration (MIC)” value in [4] stood at 0.2500 % weight/ volume; in data set [5], 0.2500 % weight/ volume; in data set [6], 0.2500 % weight/ volume; in data set [1], 0.2500 % weight/ volume; in [7], 0.1250 % weight/ volume; in [8], 0.1250 % weight/ volume. Moreover, the “Minimal inhibitory concentration (MIC)” value in data set [2] and in data set [3] was 0.1250 % weight/ volume in each case.
With `C=CCc1ccc(O)c(OC)c1` [Eugenol], in the data set “Vapour pressure”, the vapour pressure worked out at 109 µg/L.
In the case of `CCC(=CCC1CC=C(C)C1(C)C)CO` (centres unmarked) [Radjanol], the “Minimal inhibitory concentration (MIC)” value in data set [1] is 0.125. % weight/ volume; in [2] it was 0.0625 % weight/ volume; in [3] it was 0.1250 % weight/ volume.
Take `CC1=CCC(CCC(C)C(C)O)C1(C)C` (centres unmarked) [Sandalore]: the “Minimal inhibitory concentration (MIC)” value was 0.1250 % weight/ volume in data set [4]; 0.1250 % weight/ volume in data set [5]; 0.1250 % weight/ volume in [6]; 0.2500 % weight/ volume in data set [1]; 0.1250 % weight/ volume in data set [7]; 0.1250 % weight/ volume in data set [8]. The “Minimal inhibitory concentration (MIC)” value in data set [2] and in data set [3] was 0.1250 % weight/ volume in each case.
